We go through 18 compounds from US20110301170A1, “Inhibitors of JNK” (priority 2010, published 2011).

The subject of data set [1] is T1, JNK.
T1 construct: Human JNK2α2 assay contains 1 nM enzyme; Human JNK1α1 assay contains 2 nM enzyme
As to the kind of experiment: JNK Assay in vitro (phosphorylation of GST-ATF2 with [γ-33P] ATP). Particulars: IC50 affinity values; JNK isoform (JNK1α1, JNK2α2 or JNK3) not stated; Km concentrations of ATP and substrate; 30° C. for 30 min. In kind it is biochemical, Human. The procedure: JNK activity was measured by phosphorylation of GST-ATF2 (19-96) with [-^33P] ATP. […] Human JNK2α2 assay contains 1 nM enzyme, 1 μM ATF2, 8 μM ATP with 1 uCi [γ-^33P] ATP. Human JNK1α1 assay contains 2 nM enzyme, 1 μM ATF2, 6 μM ATP with 1 μCi [γ-^33P] ATP. Human JNK3 (Upstate Biotech #14-501M) assay contains 2 nM enzyme, 1 μM ATF2, 4 μM ATP with 1 μCi [γ-^33P] ATP. The enzyme assay was carried out in the presence or absence of several compound concentrations. JNK and compound were pre-incubated for 10 min., followed by initiation of the enzymatic reaction by adding ATP and the substrate. The reaction mixture was incubated at 30° C. for 30 min. At the end of incubation, the reaction was terminated by transferring 25 μl of the reaction mixture to 150 μl of 10% glutathione Sepharose® slurry (Amersham #27-4574-01) containing 135 mM EDTA. The reaction product was captured on the affinity resin, and washed on a filtration plate (Millipore, MABVNOB50) with phosphate buffered saline for six times to remove free radionucleotide. The incorporation of ^33P into ATF2 was quantified on a microplate scintillation counter (Packard Topcount). Compound inhibition potency on JNK was measured by IC50 value generated from ten concentration inhibition curves fitted into the 3-parameter model: % inhibition=Maximum/(1+(IC50/[Inhibitor])^slope). Data were analyzed on Microsoft Excel for parameter estimation.

pIC50: −log10 of the molar value. Counter-ions that a name gives are not always drawn.

For the compound `C=C(C)c1cccc2c1ccn2-c1ccnc(N[C@H]2CC[C@H](C(=O)N3CCn4c(C)cnc4C3)CC2)n1` (as salt: HCl) [Compound 10, {4-[4-(4-Isopropenyl-indol-1-yl)-pyrimidin-2-ylamino]-cyclohexyl}-(3-methyl-5,6-dihydro-8H-imidazo[1,2-a]pyrazin-7-yl)-methanone], the melting point lay within 220 to 224.9 °C.

On to `Cc1cnc2n1CCN(C(=O)[C@H]1CC[C@H](Nc3nccc(-n4ccc5c(OC(F)F)cccc54)n3)CC1)C2` (as salt: HCl) [Compound 11, {4-[4-(4-Difluoromethoxy-indol-1-yl)-pyrimidin-2-ylamino]-cyclohexyl}-(3-methyl-5,6-dihydro-8H-imidazo[1,2-a]pyrazin-7-yl)-methanone], for which the melting point is 190 to 195 °C.

Compound `Cc1nnc2n1CCN(C(=O)[C@H]1CC[C@H](Nc3nccc(-n4ccc5c(OCCCS(C)(=O)=O)cccc54)n3)CC1)C2` (as salt: HCl) [Compound 23, (4-{4-[4-(3-Methanesulfonyl-propoxy)-indol-1-yl]-pyrimidin-2-ylamino}-cyclohexyl)-(3-methyl-5,6-dihydro-8H-[1,2,4]triazolo[4,3-a]pyrazin-7-yl)-methanone] gave a melting point of 178 to 180 °C.

For the compound `O=C([C@H]1CC[C@H](Nc2nccc(-n3ccc4c(OCC5CCS(=O)(=O)C5)cccc43)n2)CC1)N1CCn2cnnc2C1` (some centres unmarked) (as salt: HCl) [Compound 24, (5,6-Dihydro-8H-[1,2,4]triazolo[4,3-a]pyrazin-7-yl)-(4-{4-[4-(1,1-dioxo-tetrahydro-1λ6-thiophen-3-ylmethoxy)-indol-1-yl]-pyrimidin-2-ylamino}-cyclohexyl)-methanone], the melting point lay within 215 to 220 °C.

Take `C=C(C)c1cccc2c1ccn2-c1ccnc(N[C@H]2CC[C@H](C(=O)N3CCn4cnnc4C3)CC2)n1` (as salt: HCl) [Compound 25, (5,6-Dihydro-8H-[1,2,4]triazolo[4,3-a]pyrazin-7-yl)-{4-[4-(4-isopropenyl-indol-1-yl)-pyrimidin-2-ylamino]-cyclohexyl}-methanone]: the melting point was in the range of 186 to 188 °C.

In turn, `C=C(C)c1cccc2c1ccn2-c1ccnc(N[C@H]2CC[C@H](C(=O)N3CCn4c(C)nnc4C3)CC2)n1` (as salt: HCl) [Compound 26, {4-[4-(4-Isopropenyl-indol-1-yl)-pyrimidin-2-ylamino]-cyclohexyl}-(3-methyl-5,6-dihydro-8H-[1,2,4]triazolo[4,3-a]pyrazin-7-yl)-methanone] showed a melting point of 216.6 to 221 °C.

For the compound `O=C([C@H]1CC[C@H](Nc2nccc(-n3ccc4c(OC(F)F)cccc43)n2)CC1)N1CCn2cnnc2C1` (as salt: HCl) [Compound 27, {4-[4-(4-Difluoromethoxy-indol-1-yl)-pyrimidin-2-ylamino]-cyclohexyl}-(5,6-dihydro-8H-[1,2,4]triazolo[4,3-a]pyrazin-7-yl)-methanone], the melting point fell in the range of 175 to 178 °C.

Take `Cc1nnc2n1CCN(C(=O)[C@H]1CC[C@H](Nc3nccc(-n4ccc5c(OC(F)F)cccc54)n3)CC1)C2` (as salt: HCl) [Compound 28, {4-[4-(4-Difluoromethoxy-indol-1-yl)-pyrimidin-2-ylamino]-cyclohexyl}-(3-methyl-5,6-dihydro-8H-[1,2,4]triazolo[4,3-a]pyrazin-7-yl)-methanone]: the melting point is 205 to 210 °C.

Consider `Cc1cccc2c1nnn2-c1ccnc(N[C@H]2CC[C@H](C(=O)N3CCn4cc(C(F)(F)F)nc4C3)CC2)n1` (as salt: HCl) [Compound 33, {4-[4-(4-Methyl-benzotriazol-1-yl)-pyrimidin-2-ylamino]-cyclohexyl}-(2-trifluoromethyl-5,6-dihydro-8H-imidazo[1,2-a]pyrazin-7-yl)-methanone], for which the melting point is 258 to 260 °C.

In turn, `Cc1cccc2c1nnn2-c1ccnc(N[C@H]2CC[C@H](C(=O)N3CCn4cnnc4C3)CC2)n1` (as salt: HCl) [Compound 34, (5,6-Dihydro-8H-[1,2,4]triazolo[4,3-a]pyrazin-7-yl)-{4-[4-(4-methyl-benzotriazol-1-yl)-pyrimidin-2-ylamino]-cyclohexyl}-methanone] displayed a melting point of 236 to 238 °C.

`Cc1cccc2c1nnn2-c1ccnc(N[C@H]2CC[C@H](C(=O)N3CCn4c(C)nnc4C3)CC2)n1` (as salt: HCl) [Compound 35, {4-[4-(4-Methyl-benzotriazol-1-yl)-pyrimidin-2-ylamino]-cyclohexyl}-(3-methyl-5,6-dihydro-8H-[1,2,4]triazolo[4,3-a]pyrazin-7-yl)-methanone] showed a melting point of 246 to 248 °C.

In the case of `O=C([C@H]1CC[C@@H](Nc2nccc(-n3nnc4c(C(F)(F)F)cccc43)n2)CC1)N1CCn2cnnc2C1` (as salt: HCl) [Compound 37, (5,6-Dihydro-8H-[1,2,4]triazolo[4,3-a]pyrazin-7-yl)-{4-[4-(4-trifluoromethyl-benzotriazol-1-yl)-pyrimidin-2-ylamino]-cyclohexyl}-methanone], the melting point is 200 to 210 °C.

In the case of `CC(C)(O)c1cccc2c1nnn2-c1ccnc(N[C@H]2CC[C@H](C(=O)N3CCn4cnnc4C3)CC2)n1` (as salt: HCl) [Compound 38, (5,6-Dihydro-8H-[1,2,4]triazolo[4,3-a]pyrazin-7-yl)-(4-{4-[4-(1-hydroxy-1-methyl-ethyl)-benzotriazol-1-yl]-pyrimidin-2-ylamino}-cyclohexyl)-methanone], the melting point was 180 to 200 °C.

`Cc1nnc2n1CCN(C(=O)[C@H]1CC[C@H](Nc3nccc(-n4nnc5c(C(C)(C)O)cccc54)n3)CC1)C2` (as salt: HCl) [Compound 39, (4-{4-[4-(1-Hydroxy-1-methyl-ethyl)-benzotriazol-1-yl]-pyrimidin-2-ylamino}-cyclohexyl)-(3-methyl-5,6-dihydro-8H-[1,2,4]triazolo[4,3-a]pyrazin-7-yl)-methanone] showed a melting point of 145 to 150 °C.

For `O=C([C@H]1CC[C@H](Nc2nccc(-n3nnc4c(OC(F)F)cccc43)n2)CC1)N1CCn2cnnc2C1` (as salt: HCl) [Compound 44, {4-[4-(4-Dilfuoromethoxy-benzotriazol-1-yl)-pyrimidin-2-ylamino]-cyclohexyl}-(5,6-dihydro-8H-[1,2,4]triazolo[4,3-a]pyrazin-7-yl)-methanone], the melting point is 185 to 190 °C.

Consider `Cc1nnc2n1CCN(C(=O)[C@H]1CC[C@H](Nc3nccc(-n4nnc5c(OC(F)F)cccc54)n3)CC1)C2` (as salt: HCl) [Compound 45, {4-[4-(4-Difluoromethoxy-benzotriazol-1-yl)-pyrimidin-2-ylamino]-cyclohexyl}-(3-methyl-5,6-dihydro-8H-[1,2,4]triazolo[4,3-a]pyrazin-7-yl)-methanone], for which the melting point was in the range of 190 to 195 °C.

For `O=C([C@H]1CC[C@H](Nc2nccc(-n3ncc4c(C(F)(F)F)cccc43)n2)CC1)N1CCn2cnnc2C1` [Compound 29, (5,6-Dihydro-8H-[1,2,4]triazolo[4,3-a]pyrazin-7-yl)-{4-[4-(4-trifluoromethyl-indazol-1-yl)-pyrimidin-2-ylamino]-cyclohexyl}-methanone], the melting point lay within 223 to 227 °C. In data set [1], this compound showed a pIC50 of 6.87.

`Cc1nnc2n1CCN(C(=O)[C@H]1CC[C@H](Nc3nccc(-n4ncc5c(C(F)(F)F)cccc54)n3)CC1)C2` [Compound 30, (3-Methyl-5,6-dihydro-8H-[1,2,4]triazolo[4,3-a]pyrazin-7-yl)-{4-[4-(4-trifluoromethyl-indazol-1-yl)-pyrimidin-2-ylamino]-cyclohexyl}-methanone] registered a melting point of 258 to 260 °C. The compound also had a pIC50 in data set [1] of 6.78.
